# Reference: patent publication US20240373846A1, “Herbicidal Compositions” (SYNGENTA CROP PROTECTION AG, priority 2021, published 2024)
# Columns and labels:
# Experiment in all cases: Post-emergence efficacy
# Format in all cases: in vivo
# [1] = test system: Amaranthus retroflexus (AMARE); settings: 100=total damage to plant, 0=no damage
# Description: (§1) When active ingredients are combined, the activity to be expected (E) for any given active ingredient combination obeys the so-called Colby Formula and can be calculated as follows (Colby, S. R., Calculating synergistic and antagonistic responses of herbicide combination, Weeds, Vol. 15, pages 20-22; 1967): • ppm=milligrams of active ingredient (a.i.) per litre • X=% action by first active ingredient using p ppm of the active ingredient • Y=% action by second active ingredient sing q ppm of the active ingredient.
# (§2) According to Colby, the expected action of active ingredients A+B using p+q ppm of active ingredient is represented by the following formula: […]
# (§3) If the action actually observed (O) is greater than the expected action E then the action of the combination is super-additive, i.e. there is a synergistic effect. In mathematical terms, synergism corresponds to a positive value for the difference of (O−E). In the case of purely complementary addition of activities (expected activity), said difference (O−E) is zero. A negative value of said difference (O−E) signals a loss of activity compared to the expected activity.
# (§4) The efficacy of various compositions of the present invention were tested against plants including the following species: Amaranthus retroflexus (AMARE), Echinochloa crus-gali (ECHCG), Lolium multiflorum (LOLMU), Setaria faberi (SETFA), and Digitaria insularis (TRCIN). The compositions are applied post-emergence, and the tests evaluated at certain days-after-application (DAA) as indicated. The tests were evaluated (100=total damage to plant; 0=no damage to plant), and the results are shown below in tables B1 to B11 below.
# [2] = test system: Digitaria insularis (TRCIN); settings: 100=total damage to plant, 0=no damage
# Description: as §1, §2, §3, §4
# [3] = test system: Lolium multiflorum (LOLMU); settings: Table B11, 15DAA, 100=total damage to plant, 0=no damage
# Description: as §1, §2, §3, §4
# Setaria faberi (SETFA) = settings: Table B8, 13 DAA, 100=total damage to plant, 0=no damage
# Description: as §1, §2, §3, §4
# [4] = test system: Echinochloa crus-gali (ECHCG); settings: 100=total damage to plant, 0=no damage
# Description: as §1, §2, §3, §4
compound,measurement,setting,value
"CSc1nnc(C(C)(C)C)c(=O)n1N [Formula B4g, metribuzin]",Observed,"[1]; Table B10, 13 DAA, 7.5 g/ha",0
CC#Cc1ccc(C2=C(OC(=O)OC)C3CCC(C3)C2=O)c(OC)c1 (stereo not shown) [Formula Ic],Observed,"[1]; Table B1, 13 DAA, 0.47 g/ha",0
same,Observed,"[1]; Table B1, 13 DAA, 0.94 g/ha",0
same,Observed,"[1]; Table B3, 13 DAA, 0.47 g/ha",10
same,Observed,"[1]; Table B3, 13 DAA, 0.94 g/ha",0
same,Observed,"[1]; Table B6, 13DAA, 1.88 g/ha",7.5
same,Observed,"[1]; Table B10, 13 DAA, 0.47 g/ha",10
same,Observed,"[1]; Table B10, 13 DAA, 0.94 g/ha",0
same,Observed,"[1]; Table B10, 13 DAA, 1.88 g/ha",0
same,Observed,"[2]; Table B7, 16DAA, 3.125 g/ha",15
same,Observed,[3]; 12.5 g/ha,60
same,Observed,Setaria faberi (SETFA); 0.47 g/ha,3
same,Observed,Setaria faberi (SETFA); 0.94 g/ha,0
same,Observed,Setaria faberi (SETFA); 1.88 g/ha,0
bicyclopyrone [Formula B1b],Observed,"[1]; Table B1, 13 DAA, 0.94 g/ha",23
same,Observed,"[1]; Table B1, 13 DAA, 1.88 g/ha",45
"CCOC(=O)c1ccccc1S(=O)(=O)NC(=O)Nc1nc(Cl)cc(OC)n1 [Formula B3c, chlorimuron-ethyl]",Observed,"[1]; Table B6, 13DAA, 1.88 g/ha",88
same,Observed,"[1]; Table B6, 13DAA, 7.5 g/ha",83
"Cn1nc(C(F)(F)F)c(CS(=O)(=O)C2=NOC(C)(C)C2)c1OC(F)F [Formula B2d, pyroxasulfone]",Observed,"[4]; Table B5, 15DAA, 125 g/ha",38
same,Observed,"[4]; Table B5, 15DAA, 250 g/ha",35
"COc1cc(OC)nc(NC(=O)NS(=O)(=O)c2ncccc2C(=O)N(C)C)n1 [Formula B3m, nicosulfuron]",Observed,Setaria faberi (SETFA); 0.94 g/ha,0
same,Observed,Setaria faberi (SETFA); 1.88 g/ha,0
same,Observed,Setaria faberi (SETFA); 3.75 g/ha,0
"COc1ccc(-n2c(=O)c(C(=O)C3C(=O)CCCC3=O)nc3c(Cl)cccc32)cc1 [Formula B1d, fenquinotrione]",Observed,"[2]; Table B2, 16DAA, 500 g/ha",35
same,Observed,"[2]; Table B2, 16DAA, 1000 g/ha",43
"CCOCN(C(=O)CCl)c1c(C)cccc1CC [Formula B2a, acetochlor]",Observed,"[4]; Table B4, 15DAA, 4000 g/ha",50
"CCNc1nc(Cl)nc(NC(C)C)n1 [Formula B4c, atrazine]",Observed,"[4]; Table B9, 20DAA, 500 g/ha",60
"CS(=O)(=O)c1ccc(C(=O)C2C(=O)CCCC2=O)c([N+](=O)[O-])c1 [Formula B1f, mesotrione]",Observed,"[1]; Table B3, 13 DAA, 3.75 g/ha",18
"CCc1cnc(C2=NC(C)(C(C)C)C(=O)N2)c(C(=O)O)c1 (stereo not shown) [Formula B3j, imazethapyr]",Observed,"[2]; Table B7, 16DAA, 8 g/ha",30
same,Observed,"[2]; Table B7, 16DAA, 15 g/ha",53
"FC(F)c1cc(-c2c(Cl)cccc2Oc2ncc(Cl)cn2)on1 [Formula B5d, rimisoxafen]",Observed,[3]; 30 g/ha,18
